Assays:
[1] = test system: T-47D; details: single dose 10 μM; breast carcinoma
[2] = test system: CAKI-1; details: single dose 10 μM; renal carcinoma
[3] = test system: HOP-62; details: single dose 10 μM; non-small lung carcinoma
[4] = test system: SF-295; details: single dose 10 μM; CNS cancer
[5] = test system: SN12C; details: single dose 10 μM; renal carcinoma
[6] = test system: SR; details: single dose 10 μM; leukemia
[7] = test system: UO-31; details: single dose 10 μM; renal carcinoma
[8] = test system: MCF7; details: single dose 10 μM; breast carcinoma
[9] = test system: MDA-MB-468; details: single dose 10 μM; breast carcinoma
[10] = test system: 786–0; details: single dose 10 μM; renal carcinoma
[11] = test system: HL-60(TB); details: single dose 10 μM; leukemia
[12] = test system: UACC-257; details: single dose 10 μM; melanoma
[13] = test system: SNB-75; details: single dose 10 μM; CNS cancer
[14] = test system: BT-549; details: single dose 10 μM; breast carcinoma
[15] = test system: NCI 60 cancer cell line panel; test: NCI 60 full panel summary; details: single dose 10 μM; mean over the NCI 60 panel
[16] = test system: NCI-H522; details: single dose 10 μM; non-small lung carcinoma
[17] = test system: MALME-3M; details: single dose 10 μM; melanoma
[18] = test system: SK-OV-3; details: single dose 10 μM; ovarian carcinoma
[19] = test system: SF-539; details: single dose 10 μM; CNS cancer
[20] = test system: TK-10; details: single dose 10 μM; renal carcinoma
[21] = test system: K-562; details: single dose 10 μM; leukemia
[22] = test system: SNB-19; details: single dose 10 μM; CNS cancer
[23] = test system: EKVX; details: single dose 10 μM; non-small lung carcinoma
[24] = test system: MOLT-4; details: single dose 10 μM; leukemia
[25] = test system: RPMI-8226; details: single dose 10 μM; leukemia
[26] = test system: NCI-H226; details: single dose 10 μM; non-small lung carcinoma
[27] = test system: OVCAR-5; details: single dose 10 μM; ovarian carcinoma
[28] = test system: ACHN; details: single dose 10 μM; renal carcinoma
[29] = test system: CCRF-CEM; details: single dose 10 μM; leukemia
[30] = test system: UACC-62; details: single dose 10 μM; melanoma
[31] = test system: PC-3; details: single dose 10 μM; prostate carcinoma
[32] = test system: LOX IMVI; details: single dose 10 μM; melanoma
[33] = test system: HOP-92; details: single dose 10 μM; non-small lung carcinoma
[34] = test system: HCT-15; details: single dose 10 μM; colon cancer

1-(1H-Benzo[d]imidazol-2-yl)-3-(5-(benzofuran-2-yl)-1-phenyl-1H-pyrazol-3-yl)prop-2-en-1-one [2d]
GI% [1]: 7.67%
GI% [2]: 10.24%
GI% [3]: 0.08%
GI% [4]: 4.39%
GI% [5]: 3.48%
GI% [6]: 14.03%
GI% [7]: 7.86%
GI% [8]: 5.90%
GI% [9]: 1.87%
GI% [10]: 0.74%
GI% [11]: 8.55%
GI% [12]: 1.66%
GI% [13]: 20.70%
GI% [14]: 15.03%
Mean GI% [15]: −0.94%
GI% [16]: 0.40%
GI% [17]: 0.07%
GI% [18]: 4.37%
GI% [19]: 1.65%
GI% [20]: 3.41%
GI% [21]: 4.77%
GI% [22]: 4.33%
GI% [23]: 2.15%
GI% [24]: 3.61%
GI% [25]: 0.67%

3-(5-(Benzofuran-2-yl)-1-phenyl-1H-pyrazol-3-yl)-1-(4-methoxyphenyl)prop-2-en-1-one [2b]
GI% [1]: 83.54%
GI% [2]: 12.51%
GI% [3]: 2.25%
GI% [4]: 7.09%
GI% [26]: 0.47%
GI% [6]: 16.61%
GI% [7]: 14.83%
GI% [8]: 0.75%
GI% [27]: 2.97%
GI% [9]: 65.44%
GI% [10]: 1.04%
GI% [28]: 0.20%
GI% [11]: 10.93%
GI% [29]: 19.37%
Mean GI% [15]: 0.61%
GI% [16]: 0.40%
GI% [17]: 1.29%
GI% [18]: 4.75%
GI% [19]: 3.20%
GI% [20]: 6.22%
GI% [21]: 8.35%
GI% [22]: 6.26%
GI% [23]: 5.88%
GI% [24]: 7.84%
GI% [30]: 7.77%
GI% [31]: 4.83%
GI% [25]: 10.27%
GI% [32]: 4.44%
GI% [33]: 18.73%

COc1ccc(C2=NN(C(C)=O)C(c3cn(-c4ccccc4)nc3-c3cc4ccccc4o3)C2)cc1 (stereo not drawn) [4b, 1-(5-(3-(Benzofuran-2-yl)-1-phenyl-1H-pyrazol-4-yl)-3-(4-methoxyphenyl)-4,5-dihydropyrazol-1-yl)ethanone]
GI% [1]: 2.42%
GI% [2]: 13.20%
GI% [3]: 2.33%
GI% [34]: 0.50%
GI% [6]: 12.12%
GI% [7]: 17.79%
GI% [8]: 9.85%
GI% [9]: 2.43%
GI% [11]: 0.51%
GI% [29]: 10.80%
Mean GI% [15]: −2.13%
GI% [16]: 1.65%
GI% [17]: 0.92%
GI% [18]: 4.82%
GI% [19]: 2.46%
GI% [20]: 7.73%
GI% [21]: 5.81%
GI% [22]: 2.45%
GI% [24]: 7.68%
GI% [30]: 5.56%
GI% [31]: 6.35%
GI% [25]: 4.36%
GI% [32]: 2.30%
GI% [33]: 8.59%

— PMC12486440, “Design, synthesis, and in silico studies of new benzofuran–pyrazole hybrids as multi-kinase inhibitors with potential antiproliferative activity” (RSC Advances, 2025)
